{"source": "patent EP1655027A1", "about": "“9-(N-methyl-piperidyliden-4)-thioxanthene for treatment of pulmonary hypertension and migraine” (Biofrontera Pharmaceuticals GmbH, priority 2004, dated 2006)", "key": {"[1]": {"molecular_target": "human 5-HT2B receptor (Homo sapiens, UniProt P41595)", "sequence (P41595 whole entry)": "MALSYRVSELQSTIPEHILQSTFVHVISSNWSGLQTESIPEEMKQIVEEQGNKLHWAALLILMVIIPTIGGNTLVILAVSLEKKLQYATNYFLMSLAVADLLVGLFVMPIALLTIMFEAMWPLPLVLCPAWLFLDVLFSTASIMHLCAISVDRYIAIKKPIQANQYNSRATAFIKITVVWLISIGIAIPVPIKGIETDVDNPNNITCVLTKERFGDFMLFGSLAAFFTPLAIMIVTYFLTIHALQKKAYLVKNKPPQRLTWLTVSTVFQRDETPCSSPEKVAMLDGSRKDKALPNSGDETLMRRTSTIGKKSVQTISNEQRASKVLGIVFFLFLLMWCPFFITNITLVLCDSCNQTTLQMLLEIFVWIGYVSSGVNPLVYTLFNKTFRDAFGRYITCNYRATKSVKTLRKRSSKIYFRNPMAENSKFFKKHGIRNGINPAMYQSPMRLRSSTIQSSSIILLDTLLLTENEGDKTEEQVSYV", "experiment": "Cloned human 5-HT2B receptor binding assay, [3H]-5HT"}, "[2]": {"test_system": "plasma protein extravasation", "experiment": "mCPP model in guinea pigs: plasma protein extravasation in the dura mater (EvansBlue)", "assay_type": "in vivo", "details": "for plasma protein extravasation as EvansBlue extinction at 600nm: 2 minutes before 1µg/kg mCPP, guinea pigs", "method": "Functional test of Pimethixene in the mCPP model in guinea pigs.\nIn accordance to the protocol published by Markowitz et. al; (1987) and Olesen et. al; (2000), guinea pigs were used to determine the amount of plasma protein released at the blood vessels within the Dura mater after mCPP application. […] 2 minutes later 1µg/kg body weight mCPP were injected and followed by the i.v. application of EvansBlue as marker for the protein plasma extravasation. 15 minutes later animals were transcranial perfused and decapitated. A,defined area of the dura mater was isolated and transferred into an eppendorf tube containing 200µl formamid. Because EvansBlue binds to plasma protein, the amount of bound marker dye is a measure of extravasation of plasma protein. Formamid dissolves EvansBlue from the protein which can be colorimetric detected and quantified at 600 nm. Table 2: Determination of plasma protein extravasation as EvansBlue extinction at 600nm."}, "[3]": {"molecular_target": "T1, human Histamine H2 receptor (Homo sapiens, UniProt P25021)", "T1 construct": "expressed in transfected cells", "T1 sequence (P25021 whole entry)": "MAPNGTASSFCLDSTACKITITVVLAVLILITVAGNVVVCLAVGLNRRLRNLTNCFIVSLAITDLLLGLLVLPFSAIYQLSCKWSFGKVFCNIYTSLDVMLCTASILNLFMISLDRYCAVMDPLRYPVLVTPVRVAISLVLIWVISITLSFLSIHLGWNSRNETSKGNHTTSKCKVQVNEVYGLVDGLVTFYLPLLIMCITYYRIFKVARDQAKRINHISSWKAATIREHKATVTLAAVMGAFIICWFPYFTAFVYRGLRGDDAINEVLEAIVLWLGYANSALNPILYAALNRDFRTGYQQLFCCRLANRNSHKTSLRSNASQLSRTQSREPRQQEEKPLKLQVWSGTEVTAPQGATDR", "experiment": "Cloned human H2 receptor binding assay, [3H]-thiotidine", "method": "(§1) CHO cells were stably transfected with an expression plasmid pCineohH1, pCineohH2, pCineohH3 and pCineohH4 encoding the human Histamine H1, H2, H3 or H4 receptor, respectively. Recombinant cell lines were harvested after confluent growth, homogenized in ice-cold 50 mM Na2/potassium phosphate buffer (pH 7.4) and used for radioligand binding studies. Cell homogenates (40 - 50 µg of protein) were incubated for 30 min at 25°C in 50 mM Na2/potassium phosphate buffer (pH 7.4) in 400 µl with the various concentrations of either [^3H]-mepyramine, [^3H]-thiotidine, [^3H]-R-α-Methylhistamine, and [^3H]-pyramilamine for cells expressing recombinant human H1, H2, H3 and H4 receptors, respectively. The nonspecific binding was defined in the presence of 1 µM mianserin. In displacement studies, cell homogenated were incubated either with 1 nM [^3H]-mepyramine, 15 nM [^3H]-thiotidine, 0.5 nM [^3H]-R-α-Methylhistamine, or 15 nM [^3H]-pyramilamine and increasing concentrations of competing ligands. The incubations were stopped by rapid dilution with 3 ml of ice-cold 50 mM Na2/potassium phosphate buffer (pH 7.4). The bound radioactivity was seperated by filatration through Whatman GF/C filters that had been treated with 0.3 % polyethyleneimine. Filters were washed twice in 3 ml of buffer and radioactivity retained on the filters was measured by liquid scinitllation counting. […]"}, "[4]": {"molecular_target": "T2, alpha 1A adrenergic receptor (Homo sapiens, UniProt P35348)", "T2 sequence (P35348 1-466)": "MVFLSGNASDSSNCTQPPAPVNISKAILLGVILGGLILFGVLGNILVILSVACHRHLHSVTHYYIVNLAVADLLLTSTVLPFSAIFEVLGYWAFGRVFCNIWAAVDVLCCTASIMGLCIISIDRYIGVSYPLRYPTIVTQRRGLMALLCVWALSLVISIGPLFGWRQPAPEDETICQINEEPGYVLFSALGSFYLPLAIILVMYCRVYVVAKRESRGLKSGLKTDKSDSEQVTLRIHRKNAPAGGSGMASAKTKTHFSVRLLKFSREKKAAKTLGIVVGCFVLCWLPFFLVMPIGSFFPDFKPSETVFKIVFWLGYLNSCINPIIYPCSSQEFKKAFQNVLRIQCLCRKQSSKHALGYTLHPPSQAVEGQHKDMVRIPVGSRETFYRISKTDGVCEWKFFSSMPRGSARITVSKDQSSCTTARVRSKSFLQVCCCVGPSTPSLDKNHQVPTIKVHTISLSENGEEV", "experiment": "Receptor affinity, Alpha 1A (epinephrine as agonist)", "assay_type": "binding", "details": "read-out: pKi values (converted)", "method": "(§2) Summary of pKi values of Pimethixene for the respective receptor subtypes. pKi values were calculated using the equation of Cheng and Prusoff {pKi = -log (IC50/[1+ used concentration of Agonist/EC50])}.EC80 values were calculated from corresponding dose-response experiment using 5-HT, histamine, epinephrine (alpha 1A adrenergic receptor), dopamine (D2 dopaminergic receptor), and acetylcholine (M1 muscarinic receptor) as agonists."}, "[5]": {"molecular_target": "T3, human H1 receptor (Homo sapiens, UniProt P35367)", "T3 construct": "expressed in transfected cells", "T3 sequence (P35367 whole entry)": "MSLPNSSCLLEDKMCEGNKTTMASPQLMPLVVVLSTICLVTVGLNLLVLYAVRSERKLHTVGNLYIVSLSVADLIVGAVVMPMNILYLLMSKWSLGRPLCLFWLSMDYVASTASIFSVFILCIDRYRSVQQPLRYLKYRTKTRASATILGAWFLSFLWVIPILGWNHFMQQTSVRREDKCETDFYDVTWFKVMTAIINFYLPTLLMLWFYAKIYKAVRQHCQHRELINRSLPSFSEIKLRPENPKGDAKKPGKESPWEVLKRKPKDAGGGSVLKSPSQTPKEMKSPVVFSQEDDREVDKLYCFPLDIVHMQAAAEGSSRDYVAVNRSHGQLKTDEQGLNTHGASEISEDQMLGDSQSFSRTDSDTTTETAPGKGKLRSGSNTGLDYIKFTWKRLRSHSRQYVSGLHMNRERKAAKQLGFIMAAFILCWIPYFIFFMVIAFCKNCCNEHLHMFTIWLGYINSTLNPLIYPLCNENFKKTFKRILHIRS", "experiment": "Cloned human H1 receptor binding assay, [3H]-mepyramine", "method": "as §1"}, "[6]": {"molecular_target": "T4, 5-HT2C receptor (Homo sapiens, UniProt P28335)", "T4 construct": "expressed in transfected cells; host or cells: Cos-7", "T4 sequence (P28335 33-458)": "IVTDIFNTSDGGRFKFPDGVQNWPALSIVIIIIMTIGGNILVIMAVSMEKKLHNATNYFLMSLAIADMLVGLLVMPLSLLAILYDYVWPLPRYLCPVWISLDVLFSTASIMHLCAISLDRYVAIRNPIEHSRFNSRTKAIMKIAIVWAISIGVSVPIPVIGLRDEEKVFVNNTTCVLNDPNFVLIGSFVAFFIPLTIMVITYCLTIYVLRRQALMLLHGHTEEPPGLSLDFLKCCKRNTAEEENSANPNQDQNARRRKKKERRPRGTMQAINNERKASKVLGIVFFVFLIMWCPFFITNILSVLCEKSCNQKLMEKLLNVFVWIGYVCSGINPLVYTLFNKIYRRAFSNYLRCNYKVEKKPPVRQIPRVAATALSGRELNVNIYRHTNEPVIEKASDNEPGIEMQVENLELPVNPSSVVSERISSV", "experiment": "5-HT2C receptor binding method, [3H]mesulergine", "details": "read-out: pKi values (converted)", "method": "5-HT2C receptors were labelled in Cos-7 cells expressing the human 5-HT2C receptor and in NIH-3T3 expressing the rat 5-HT2C receptor.\nAssays were conducted as described for the 5-HT2A receptor except that the radioligand was [^3H]mesulergine. […] ."}, "[7]": {"molecular_target": "T5, 5-HT2A receptor (Homo sapiens, UniProt P28223)", "T5 construct": "expressed in transfected cells; host or cells: HEK293", "T5 sequence (P28223 whole entry)": "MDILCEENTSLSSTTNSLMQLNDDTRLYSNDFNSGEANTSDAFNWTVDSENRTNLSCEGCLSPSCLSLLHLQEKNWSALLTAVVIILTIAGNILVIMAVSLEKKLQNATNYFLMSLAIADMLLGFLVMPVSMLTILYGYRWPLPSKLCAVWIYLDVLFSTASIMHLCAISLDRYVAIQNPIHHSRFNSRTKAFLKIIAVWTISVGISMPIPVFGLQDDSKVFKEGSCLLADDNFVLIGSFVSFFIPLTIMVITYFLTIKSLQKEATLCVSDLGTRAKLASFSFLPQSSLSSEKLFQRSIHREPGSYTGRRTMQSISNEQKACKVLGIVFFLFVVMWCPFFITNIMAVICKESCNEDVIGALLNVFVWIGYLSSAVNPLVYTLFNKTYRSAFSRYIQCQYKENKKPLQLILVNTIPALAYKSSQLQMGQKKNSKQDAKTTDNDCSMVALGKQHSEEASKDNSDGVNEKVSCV", "experiment": "5-HT2A receptor binding method, [3H]ketanserin", "details": "read-out: pKi values (converted)"}, "[8]": {"molecular_target": "T6, human Histamine H4 receptor (Homo sapiens, UniProt Q9H3N8)", "T6 construct": "expressed in transfected cells", "T6 sequence (Q9H3N8 whole entry)": "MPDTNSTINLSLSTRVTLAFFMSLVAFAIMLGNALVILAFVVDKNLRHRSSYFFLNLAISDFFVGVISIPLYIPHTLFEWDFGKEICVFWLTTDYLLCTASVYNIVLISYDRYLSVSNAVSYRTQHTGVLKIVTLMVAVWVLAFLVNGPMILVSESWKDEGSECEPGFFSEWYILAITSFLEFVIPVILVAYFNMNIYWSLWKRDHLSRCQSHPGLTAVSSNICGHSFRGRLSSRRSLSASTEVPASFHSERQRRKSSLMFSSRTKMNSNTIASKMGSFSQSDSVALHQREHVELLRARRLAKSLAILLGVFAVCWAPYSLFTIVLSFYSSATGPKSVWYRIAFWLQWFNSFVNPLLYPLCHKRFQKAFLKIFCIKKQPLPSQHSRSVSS", "experiment": "Cloned human H4 receptor binding assay, [3H]-pyramilamine", "method": "as §1"}, "[9]": {"molecular_target": "D2 dopaminergic receptor (Homo sapiens, UniProt P14416)", "sequence (P14416 whole entry)": "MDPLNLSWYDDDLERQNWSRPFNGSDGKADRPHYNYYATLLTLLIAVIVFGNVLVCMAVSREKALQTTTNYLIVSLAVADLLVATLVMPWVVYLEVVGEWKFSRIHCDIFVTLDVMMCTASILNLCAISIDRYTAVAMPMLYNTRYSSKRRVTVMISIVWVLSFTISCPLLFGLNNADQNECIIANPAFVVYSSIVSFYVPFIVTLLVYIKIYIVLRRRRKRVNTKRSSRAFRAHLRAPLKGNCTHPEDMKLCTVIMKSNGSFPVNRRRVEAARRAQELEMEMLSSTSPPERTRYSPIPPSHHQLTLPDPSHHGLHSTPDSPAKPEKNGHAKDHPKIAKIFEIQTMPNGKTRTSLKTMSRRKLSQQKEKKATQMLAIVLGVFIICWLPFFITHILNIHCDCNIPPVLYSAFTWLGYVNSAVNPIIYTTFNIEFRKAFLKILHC", "experiment": "Receptor affinity, D2 (dopamine as agonist)", "assay_type": "binding", "details": "read-out: pKi values (converted)", "method": "as §2"}, "[10]": {"molecular_target": "T7, M1 muscarinic receptor (Homo sapiens, UniProt P11229)", "T7 sequence (P11229 1-460)": "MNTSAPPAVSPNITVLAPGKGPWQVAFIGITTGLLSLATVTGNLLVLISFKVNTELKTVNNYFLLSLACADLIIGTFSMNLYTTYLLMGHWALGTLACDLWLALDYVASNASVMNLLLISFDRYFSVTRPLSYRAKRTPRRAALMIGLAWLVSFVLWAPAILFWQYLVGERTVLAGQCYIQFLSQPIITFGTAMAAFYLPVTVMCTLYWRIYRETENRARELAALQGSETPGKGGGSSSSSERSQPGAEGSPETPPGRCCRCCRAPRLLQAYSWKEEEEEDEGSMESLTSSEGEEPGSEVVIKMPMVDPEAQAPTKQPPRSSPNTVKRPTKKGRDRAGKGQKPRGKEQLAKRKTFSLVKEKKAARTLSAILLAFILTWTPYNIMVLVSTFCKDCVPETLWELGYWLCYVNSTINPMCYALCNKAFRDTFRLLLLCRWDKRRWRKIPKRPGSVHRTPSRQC", "experiment": "Receptor affinity, M1 (acetylcholine as agonist)", "assay_type": "binding", "details": "read-out: pKi values (converted)", "method": "as §2"}, "[11]": {"molecular_target": "T8, human Histamine H3 receptor (Homo sapiens, UniProt Q9Y5N1)", "T8 construct": "expressed in transfected cells", "T8 sequence (Q9Y5N1 whole entry)": "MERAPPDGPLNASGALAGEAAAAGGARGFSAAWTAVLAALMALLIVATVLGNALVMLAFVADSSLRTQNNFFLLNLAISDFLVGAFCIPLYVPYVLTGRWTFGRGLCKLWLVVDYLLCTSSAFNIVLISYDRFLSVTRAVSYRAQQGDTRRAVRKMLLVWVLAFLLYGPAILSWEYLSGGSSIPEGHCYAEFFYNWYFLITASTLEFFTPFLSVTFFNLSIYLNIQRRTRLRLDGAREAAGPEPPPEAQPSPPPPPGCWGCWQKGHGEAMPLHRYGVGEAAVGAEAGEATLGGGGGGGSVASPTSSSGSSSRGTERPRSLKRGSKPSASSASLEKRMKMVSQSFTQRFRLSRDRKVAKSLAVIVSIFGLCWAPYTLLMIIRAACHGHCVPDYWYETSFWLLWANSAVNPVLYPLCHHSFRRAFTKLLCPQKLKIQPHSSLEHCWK", "experiment": "Cloned human H3 receptor binding assay, [3H]-R-α-Methylhistamine", "method": "as §1"}}, "data": [{"smiles": "CN1CCC(=C2c3ccccc3CCc3sccc32)CC1", "note": "[Pizotifen]", "values": [{"measurement": "Ki", "setting": "[1]", "result": 2.88, "unit": "nM"}, {"measurement": "plasma protein extravasation as EvansBlue extinction at 600nm", "setting": "[2]; 1 µg/kg i.v.", "result": "0,404 ± 0,025"}, {"measurement": "plasma protein extravasation as EvansBlue extinction at 600nm", "setting": "[2]; 10 µg/kg i.v.", "result": "0,144 ± 0,035"}, {"measurement": "plasma protein extravasation as EvansBlue extinction at 600nm", "setting": "[2]; 100 µg/kg i.v.", "result": "0,230 ± 0,018"}]}, {"smiles": "CN1CCC(=C2c3ccccc3Sc3ccccc32)CC1", "note": "[Pimethixene, 9-(N-methyl-piperidyliden-4)-thioxanthene]", "values": [{"measurement": "Ki", "setting": "[1]", "result": 0.0251, "unit": "nM"}, {"measurement": "affinity for the 5-HT2B receptor versus 5HT2C receptor", "setting": "[1]; selectivity, result in words", "result": "selective affinity"}, {"measurement": "pKi values", "setting": "[3]; H2", "result": "low activity"}, {"measurement": "affinity", "setting": "[3]; human H2 receptor, result in words", "result": "no affinity"}, {"measurement": "Ki", "setting": "[4]", "result": 25.1, "unit": "nM"}, {"measurement": "Ki", "setting": "[5]; H1, read-out: pKi values (converted)", "result": 0.00794, "unit": "nM"}, {"measurement": "affinity", "setting": "[5]; human H1 receptor, result in words", "result": "high affinity"}, {"measurement": "Ki", "setting": "[6]", "result": 2.51, "unit": "nM"}, {"measurement": "plasma protein extravasation as EvansBlue extinction at 600nm", "setting": "[2]; 0,01 µg/kg i.v.", "result": "0,157 ± 0,040"}, {"measurement": "plasma protein extravasation as EvansBlue extinction at 600nm", "setting": "[2]; 0,1 µg/kg i.v.", "result": "0,126 ± 0,028"}, {"measurement": "plasma protein extravasation as EvansBlue extinction at 600nm", "setting": "[2]; 0,001 µg/kg i.v.", "result": "0,269 ± 0,022"}, {"measurement": "Ki", "setting": "[7]", "result": 0.0631, "unit": "nM"}, {"measurement": "pKi values", "setting": "[8]; H4", "result": "low activity"}, {"measurement": "affinity", "setting": "[8]; human H4 receptor, result in words", "result": "no affinity"}, {"measurement": "Ki", "setting": "[9]", "result": 6.31, "unit": "nM"}, {"measurement": "Ki", "setting": "[10]", "result": 2.51, "unit": "nM"}, {"measurement": "pKi values", "setting": "[11]; H3", "result": "low activity"}, {"measurement": "affinity", "setting": "[11]; human H3 receptor, result in words", "result": "no affinity"}]}, {"smiles": "Clc1cccc(N2CCNCC2)c1", "note": "[mCPP, m-chlorophenylpiperazine]", "values": [{"measurement": "extinction", "setting": "[2]; positive control: mCPP agonist alone, 1µg/kg, negative control 0,130 ± 0,024", "result": "0,300 ± 0,038"}]}, {"smiles": "CC[C@@H](CO)NC(=O)[C@@H]1C=C2c3cccc4c3c(cn4C)C[C@H]2N(C)C1", "note": "[Methysergide]", "values": [{"measurement": "plasma protein extravasation as EvansBlue extinction at 600nm", "setting": "[2]; 0,1 µg/kg i.v.", "result": "0,265 ± 0,034"}, {"measurement": "plasma protein extravasation as EvansBlue extinction at 600nm", "setting": "[2]; 1 µg/kg i.v.", "result": "0,250 ± 0,027"}, {"measurement": "plasma protein extravasation as EvansBlue extinction at 600nm", "setting": "[2]; 10 µg/kg i.v.", "result": "0,228 ± 0,064"}, {"measurement": "plasma protein extravasation as EvansBlue extinction at 600nm", "setting": "[2]; 100 µg/kg i.v.", "result": "0,189 ± 0,026"}]}]}
